A short description of this test: Tested for 50% of inhibition of Osteoclastic acid phosphatase (OAP) activity, determined using dose-response curve.

Structures are written as SMILES.

Consider `O=C(c1ccccc1)C(C(=O)c1ccccc1)(c1cccc2ccccc12)P(=O)(O)O` [2-(naphthalen-1-yl)-1,3-dioxo-1,3-diphenylpropan-2-ylphosphonic acid], for which inhibition was half-maximal at 1.4 µM (IC50).

`O=P(O)(O)C(Cc1ccccc1)c1cccc2ccccc12` (configuration not stated) [(1-Naphthalen-1-yl-2-phenyl-ethyl)-phosphonic acid]: it took 21 µM to reach half-maximal inhibition (IC50). To `O=P(O)(O)C(Cc1ccc(-c2ccccc2)cc1)c1cccc2ccccc12` (configuration not stated) [(2-Biphenyl-4-yl-1-naphthalen-1-yl-ethyl)-phosphonic acid] belongs 6.3 µM; to `O=P(O)(O)C(CC1CCCCC1)c1cccc2ccccc12` (configuration not stated) [(2-Cyclohexyl-1-naphthalen-1-yl-ethyl)-phosphonic acid], 11.4 µM. The figure for `O=P(O)(O)C(Cc1ccc(Cl)cc1)c1cccc2ccccc12` (configuration not stated) [[2-(4-Chloro-phenyl)-1-naphthalen-1-yl-ethyl]-phosphonic acid] is 21 µM; for `Cc1ccc2ccccc2c1C(CC1CCCCC1)P(=O)(O)O` (configuration not stated) [[2-Cyclohexyl-1-(2-methyl-naphthalen-1-yl)-ethyl]-phosphonic acid] it is 11 µM; for `O=P(O)(O)Cc1cccc2ccccc12` [naphthalen-1-ylmethylphosphonic acid] it is 30 µM.

The values are drawn from BindingDB's records for doi:10.1016/0960-894X(95)00299-9 (1995).
